Measurements: patent US11254686B1 (Corvus Pharmaceuticals, Inc., priority 2017, dated 2022)

What was measured:
Assay type in all cases: biochemical
adenosine A2B receptor = adenosine A2B receptor (Homo sapiens (Human), UniProt P29275); assay: Adenosine receptor activity assay (Table 1), A2B activity; conditions: for Ratio: A2A activity to the A2B activity, A2A/A2B; for IC50: read-out: Ave A2B cAMP IC50
adenosine A2A receptor = adenosine A2A receptor (Homo sapiens (Human), UniProt P29274); assay: Adenosine receptor activity assay (Table 1), A2A activity; conditions: read-out: Ave A2A cAMP IC50
adenosine A2A receptor, sequence (P29274 whole entry): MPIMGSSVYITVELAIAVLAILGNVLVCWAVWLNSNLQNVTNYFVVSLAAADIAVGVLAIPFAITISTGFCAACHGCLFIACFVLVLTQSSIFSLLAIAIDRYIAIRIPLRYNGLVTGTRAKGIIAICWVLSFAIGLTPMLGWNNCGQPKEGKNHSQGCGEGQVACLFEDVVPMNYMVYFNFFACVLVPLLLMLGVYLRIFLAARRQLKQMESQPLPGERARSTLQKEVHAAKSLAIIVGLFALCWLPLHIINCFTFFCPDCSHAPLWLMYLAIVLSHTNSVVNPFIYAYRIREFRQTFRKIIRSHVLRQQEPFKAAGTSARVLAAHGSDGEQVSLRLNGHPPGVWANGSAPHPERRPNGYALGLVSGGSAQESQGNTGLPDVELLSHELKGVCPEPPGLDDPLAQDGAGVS

adenosine A1 receptor = adenosine A1 receptor (Homo sapiens (Human), UniProt P30542); assay: Adenosine receptor activity assay (Table 1), A1 cAMP
adenosine A1 receptor, sequence (P30542 whole entry): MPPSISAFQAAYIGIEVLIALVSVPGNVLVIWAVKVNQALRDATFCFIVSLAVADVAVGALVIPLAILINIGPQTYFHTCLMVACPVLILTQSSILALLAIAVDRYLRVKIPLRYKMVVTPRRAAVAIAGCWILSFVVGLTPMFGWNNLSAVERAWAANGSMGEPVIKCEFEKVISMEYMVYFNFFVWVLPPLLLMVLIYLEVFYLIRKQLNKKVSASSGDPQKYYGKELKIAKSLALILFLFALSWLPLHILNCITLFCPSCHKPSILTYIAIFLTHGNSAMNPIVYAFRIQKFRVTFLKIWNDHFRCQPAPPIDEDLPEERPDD
Method: (§1) Table 1. Compounds (e.g., Adenosine Receptor modulators) and activity assay results. The legend is as follows: A=<10 nM; B=10-50 nM; C=50-100 nM; D=100-500; and E=>500 nM. The ratio corresponds to the A2A activity to the A2B activity; or A2A/A2B.

adenosine A3 receptor = adenosine A3 receptor (Homo sapiens (Human), UniProt P0DMS8); assay: Adenosine receptor activity assay (Table 1), A3 cAMP
adenosine A3 receptor, sequence (P0DMS8 whole entry): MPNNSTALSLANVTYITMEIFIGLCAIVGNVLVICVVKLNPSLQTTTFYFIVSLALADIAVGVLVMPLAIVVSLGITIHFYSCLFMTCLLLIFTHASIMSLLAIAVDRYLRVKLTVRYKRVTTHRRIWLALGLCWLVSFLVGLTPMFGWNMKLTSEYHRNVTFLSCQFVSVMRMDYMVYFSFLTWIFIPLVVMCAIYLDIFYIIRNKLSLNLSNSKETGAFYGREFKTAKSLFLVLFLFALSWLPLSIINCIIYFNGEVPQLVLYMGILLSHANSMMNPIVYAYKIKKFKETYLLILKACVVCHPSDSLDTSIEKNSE
Method: as §1

adenosine A2B receptor, sequence (P29275 whole entry): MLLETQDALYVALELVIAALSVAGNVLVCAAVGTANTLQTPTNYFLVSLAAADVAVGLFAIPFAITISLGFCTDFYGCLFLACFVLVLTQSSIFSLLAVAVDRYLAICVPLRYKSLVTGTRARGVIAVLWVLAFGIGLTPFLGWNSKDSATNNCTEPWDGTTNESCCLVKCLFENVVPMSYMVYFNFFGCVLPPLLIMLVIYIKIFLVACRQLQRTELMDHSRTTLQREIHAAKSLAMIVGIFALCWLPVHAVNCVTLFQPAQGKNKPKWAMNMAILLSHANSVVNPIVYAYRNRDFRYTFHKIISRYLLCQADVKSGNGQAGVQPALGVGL

Row | SMILES | Ratio (adenosine A2B receptor) | IC50 (adenosine A2B receptor) | IC50 (adenosine A2A receptor) | IC50 (adenosine A1 receptor) | IC50 (adenosine A3 receptor)
1 | Cc1cc2nc(N[C@@H](C)c3cncc(F)c3)nc(C(=O)N3CC(C(=O)NOC(C)(C)C)C3)c2s1 [Example Z592, (S)—N-(tert-Butoxy)-1-(2-((1-(5-fluoropyridin-3-yl)ethyl)amino)-6-methylthieno[3,2-d]pyrimidine-4-carbonyl)azetidine-3-carboxamide] | 4.67 | 10 to 50 nM | 50 to 100 nM | > 500 nM | > 500 nM
2 | Cc1cc2nc(N[C@@H](C)c3cncc(F)c3)nc(C(=O)N3CC[C@@H](N)C3)c2s1 [Example Z413, ((R)-3-Aminopyrrolidin-1-yl)(2-(((S)-1-(5-fluoropyridin-3-yl)ethyl)amino)-6-methylthieno[3,2-d]pyrimidin-4-yl)methanone] | 126.84 | 10 to 50 nM | > 500 nM | > 500 nM | > 500 nM
3 | Cc1cc2nc(N[C@@H](C)c3cccnc3)nc(C(=O)N3CC(CO)C3)c2s1 [Example Z515, (S)-(3-(Hydroxymethyl)azetidin-1-yl)(6-methyl-2-((1-(pyridin-3-yl)ethyl)amino)thieno[3,2-d]pyrimidin-4-yl)methanone] | 53.11 | 10 to 50 nM | > 500 nM | > 500 nM | > 500 nM
4 | C[C@H](Nc1nc(C(=O)N2CC(CNC(=O)OC(C)(C)C)C2)c2sccc2n1)c1cncc(F)c1 [Example Z404, tert-Butyl (S)-((1-(2-((1-(5-fluoropyridin-3-yl)ethyl)amino)thieno[3,2-d]pyrimidine-4-carbonyl)azetidin-3-yl)methyl)carbamate] | 5.80 | < 10 nM | 10 to 50 nM | > 500 nM | > 500 nM
5 | C[C@H](Nc1nc(C(=O)N2CC(CC(=O)NC(C)(C)C)C2)c2sccc2n1)c1cncc(F)c1 [Example Z571, (S)—N-(tert-Butyl)-2-(1-(2-((1-(5-fluoropyridin-3-yl)ethyl)amino)thieno[3,2-d]pyrimidine-4-carbonyl)azetidin-3-yl)acetamide] | 1.51 | 10 to 50 nM | 10 to 50 nM | > 500 nM | > 500 nM
6 | C[C@H](Nc1nc(C(=O)NCCc2cccc(O)c2)c2sccc2n1)c1cccnc1 [Example Z427, (S)—N-(3-Hydroxyphenethyl)-2-((1-(pyridin-3-yl)ethyl)amino)thieno[3,2-d]pyrimidine-4-carboxamide] | 5.03 | 50 to 100 nM | 100 to 500 nM | 100 to 500 nM | 100 to 500 nM
7 | C[C@H](Nc1nc(C(=O)N2CC(CN(C)C(=O)C(C)(C)C)C2)c2sccc2n1)c1cncc(F)c1 [Example Z551, (S)—N-((1-(2-((1-(5-Fluoropyridin-3-yl)ethyl)amino)thieno[3,2-d]pyrimidine-4-carbonyl)azetidin-3-yl)methyl)-N-methylpivalamide] | 1.68 | 10 to 50 nM | 10 to 50 nM | > 500 nM | > 500 nM
8 | Cc1cc2nc(N[C@@H](C)c3cncc(F)c3)nc(C(=O)N3CC(NC(=O)C4CCCO4)C3)c2s1 (stereo partly drawn) [Example Z541, N-(1-(2-(((S)-1-(5-Fluoropyridin-3-yl)ethyl)amino)-6-methylthieno[3,2-d]pyrimidine-4-carbonyl)azetidin-3-yl)tetrahydrofuran-2-carboxamide] | 1.64 | 10 to 50 nM | 10 to 50 nM | 100 to 500 nM | 100 to 500 nM
9 | CC1CCN1C(=O)c1nc(N[C@@H](C)c2cncc(F)c2)nc2ccsc12 (stereo partly drawn) [Example Z524, (2-(((S)-1-(5-Fluoropyridin-3-yl)ethyl)amino)thieno[3,2-d]pyrimidin-4-yl)(2-methylazetidin-1-yl)methanone] | 11.94 | < 10 nM | 50 to 100 nM | > 500 nM | > 500 nM
10 | Cc1cc2nc(N[C@@H](C)c3cncc(F)c3)nc(C(=O)NCCC3CCNCC3)c2s1 [Example Z496, (S)-2-((1-(5-Fluoropyridin-3-yl)ethyl)amino)-6-methyl-N-(2-(piperidin-4-yl)ethyl)thieno[3,2-d]pyrimidine-4-carboxamide] | 524.78 | 10 to 50 nM | > 500 nM | > 500 nM | > 500 nM
11 | COc1ccc(CNC(=O)c2nc(N[C@@H](C)c3ccccn3)nc3cc(C)sc23)cn1 [Example Z469, (S)—N-((6-Methoxypyridin-3-yl)methyl)-6-methyl-2-((1-(pyridin-2-yl)ethyl)amino)thieno[3,2-d]pyrimidine-4-carboxamide] | 36.71 | 10 to 50 nM | > 500 nM | > 500 nM | > 500 nM
12 | Cc1cc2nc(N[C@@H](C)c3cncc(F)c3)nc(C(=O)N3CC(NC(=O)OC(C)(C)C)C3)c2s1 [Example Z429, tert-Butyl (S)-(1-(2-((1-(5-Fluoropyridin-3-yl)ethyl)amino)-6-methylthieno[3,2-d]pyrimidine-4-carbonyl)azetidin-3-yl)carbamate] | 4.15 | < 10 nM | 10 to 50 nM | 50 to 100 nM | 10 to 50 nM
13 | Cc1cc2nc(N[C@@H](C)c3cncc(F)c3)nc(C(=O)N3CC(NC(=O)C4CCOC4)C3)c2s1 (stereo partly drawn) [Example Z523, N-(1-(2-(((S)-1-(5-Fluoropyridin-3-yl)ethyl)amino)-6-methylthieno[3,2-d]pyrimidine-4-carbonyl)azetidin-3-yl)tetrahydrofuran-3-carboxamide] | 1.40 | < 10 nM | 10 to 50 nM | > 500 nM | 100 to 500 nM
14 | C[C@H](Nc1nc(C(=O)N2CC(CNC(=O)C(C)(C)C)C2)c2sccc2n1)c1cncc(F)c1 [Example Z529, (S)—N-((1-(2-((1-(5-Fluoropyridin-3-yl)ethyl)amino)thieno[3,2-d]pyrimidine-4-carbonyl)azetidin-3-yl)methyl)pivalamide] | 4.15 | 10 to 50 nM | 100 to 500 nM | > 500 nM | > 500 nM
15 | CC(=O)NC1CN(C(=O)c2nc(N[C@@H](C)c3cncc(F)c3)nc3cc(C)sc23)C1 [Example Z543, (S)—N-(1-(2-((1-(5-Fluoropyridin-3-yl)ethyl)amino)-6-methylthieno[3,2-d]pyrimidine-4-carbonyl)azetidin-3-yl)acetamide] | 18.71 |  | 100 to 500 nM | > 500 nM | > 500 nM
16 | CC(C)(C)C(=O)N[C@H]1CCN(C(=O)c2nc(NCc3cncc(F)c3)nc3ccsc23)C1 [Example Z526, (S)—N-(1-(2-(((5-Fluoropyridin-3-yl)methyl)amino)thieno[3,2-d]pyrimidine-4-carbonyl)pyrrolidin-3-yl)pivalamide] | 4.26 | 10 to 50 nM | 50 to 100 nM | > 500 nM | > 500 nM
17 | C[C@H](Nc1nc(C(=O)NCCc2cccc(O)c2)c2sccc2n1)c1cncc(F)c1 [Example Z409, (S)-2-((1-(5-Fluoropyridin-3-yl)ethyl)amino)-N-(3-hydroxyphenethyl)thieno[3,2-d]pyrimidine-4-carboxamide] | 5.96 | < 10 nM | 10 to 50 nM | 50 to 100 nM | 50 to 100 nM
18 | C[C@H](Nc1nc(C(=O)N2CCC(C(=O)NOC(C)(C)C)C2)c2sccc2n1)c1cncc(F)c1 (stereo partly drawn) [Example Z549, N-(tert-Butoxy)-1-(2-(((S)-1-(5-fluoropyridin-3-yl)ethyl)amino)thieno[3,2-d]pyrimidine-4-carbonyl)pyrrolidine-3-carboxamide] | 0.63 | 10 to 50 nM | < 10 nM | > 500 nM | > 500 nM
19 | Cc1csc2c(C(=O)N3CCCC3)nc(N[C@@H](C)c3cncc(F)c3)nc12 [Example Z414, (S)-(2-((1-(5-Fluoropyridin-3-yl)ethyl)amino)-7-methylthieno[3,2-d]pyrimidin-4-yl)(pyrrolidin-1-yl)methanone] | 19.11 | < 10 nM | 10 to 50 nM | 50 to 100 nM | 50 to 100 nM
20 | C[C@H](Nc1nc(C(=O)NCCc2ccc(O)cc2)c2sccc2n1)c1ccnc(F)c1 [Example Z405, (S)-2-((1-(2-Fluoropyridin-4-yl)ethyl)amino)-N-(4-hydroxyphenethyl)thieno[3,2-d]pyrimidine-4-carboxamide] | 28.50 | < 10 nM | 100 to 500 nM | > 500 nM | > 500 nM
21 | C[C@H](Nc1nc(C(=O)N[C@@H]2CC[C@H](O)C2)c2sccc2n1)c1cncc(F)c1 [Example Z402, 2-(((S)-1-(5-Fluoropyridin-3-yl)ethyl)amino)-N-((1R,3S)-3-hydroxycyclopentyl)thieno[3,2-d]pyrimidine-4-carboxamide] | 38.37 | < 10 nM | 50 to 100 nM | 100 to 500 nM | 50 to 100 nM
22 | CC(=O)N(C)C1CN(C(=O)c2nc(N[C@@H](C)c3cncc(F)c3)nc3cc(C)sc23)C1 [Example Z509, (S)—N-(1-(2-((1-(5-Fluoropyridin-3-yl)ethyl)amino)-6-methylthieno[3,2-d]pyrimidine-4-carbonyl)azetidin-3-yl)-N-methylacetamide] | 80.91 | < 10 nM | > 500 nM | > 500 nM | > 500 nM
23 | Cc1cc2nc(N[C@@H](C)c3cncc(F)c3)nc(C(=O)N3CC(CC(=O)OC(C)(C)C)C3)c2s1 [Example Z580, tert-Butyl (S)-2-(1-(2-((1-(5-Fluoropyridin-3-yl)ethyl)amino)-6-methylthieno[3,2-d]pyrimidine-4-carbonyl)azetidin-3-yl)acetate] | 1.19 | 10 to 50 nM | 10 to 50 nM | > 500 nM | 100 to 500 nM
